Consider 15 compounds from patent publication US20250275991A1, “ORAL COMPLEMENT FACTOR D INHIBITORS” (BioCryst Pharmaceuticals, Inc, priority 2019, published 2025).

The IC50 is the concentration that gives 50% inhibition.

Molecules are shown by their SMILES. Where only a bound is given, the exact number is not on record here.

Factor D, sequence (P00746 26-253): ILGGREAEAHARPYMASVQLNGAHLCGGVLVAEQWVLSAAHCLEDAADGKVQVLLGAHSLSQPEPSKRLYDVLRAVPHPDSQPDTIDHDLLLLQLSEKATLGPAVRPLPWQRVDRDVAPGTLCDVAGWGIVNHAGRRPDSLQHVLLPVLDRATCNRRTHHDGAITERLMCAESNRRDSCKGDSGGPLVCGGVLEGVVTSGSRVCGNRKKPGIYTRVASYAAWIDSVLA

For the test, the target named is Factor D (Homo sapiens, UniProt P00746). In words: Factor D esterolytic assay. The test is classed as biochemical. As to conditions: substrate Z-Lys-SBzl 1.29 mM, 100 mM HEPES, 500 mM NaCl, pH 7.5, 10% DMSO, tested a minimum of three times. The method in brief:
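Human Factor D esterolytic assay in 100 mM HEPES, 500 mM NaCl, pH 7.5, 10% DMSO, with 1.29 mM Z-Lys-SBzl substrate. Released thiol detected with DTNB at 405 nm over 600 s, minus 690 nm background. Substrate added immediately or after room-temperature preincubation with compound. IC50 from percent inhibition relative to enzyme alone; ≥3 tests.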
Take `CC(C)C(=O)Nc1ccc(CC(=O)O)c(OCc2cc(-c3cccc(CN)c3)c3occc3c2)c1` [Compound 70f]: the IC50 was < 1000 nM.

Regarding `CC(C)OC(=O)Nc1ccc(CC(=O)O)c(OCc2cc(-c3cccc(CN)c3)c3occc3c2)c1` [Compound 20h, 2-(2-((7-(3-(aminomethyl)phenyl)benzofuran-5-yl)methoxy)-4-((isopropoxycarbonyl)amino)phenyl)acetic acid], the IC50 was < 1000 nM.

`NCc1cccc(-c2cc(COc3cc(OC(F)(F)F)ccc3CC(=O)O)cc3ccoc23)c1` [Compound 10d, 2-(2-((7-(3-(aminomethyl)phenyl)benzofuran-5-yl)methoxy)-4-(trifluoromethoxy)phenyl)acetic acid]: the IC50 was < 1000 nM.

With `COCc1cc2cc(COc3cc(C(C)=O)ccc3CC(=O)O)cc(-c3cccc(CN)c3)c2o1` [Compound 12j, 2-(4-acetyl-2-((7-(3-(aminomethyl)phenyl)-2-(methoxymethyl)benzofuran-5-yl)methoxy)phenyl)acetic acid], the IC50 is < 1000 nM.

`CCNCc1nccc(-c2cc(COc3ccccc3CC(=O)O)cc3ccoc23)c1F` [Compound 37d, 2-(2-((7-(2-((ethylamino)methyl)-3-fluoropyridin-4-yl)benzofuran-5-yl)methoxy)phenyl)acetic acid]: the IC50 is < 1000 nM.

`CC(=O)c1ccc(CC(=O)O)c(OCc2cc(-c3ccnc(CN)c3)c3oc(F)cc3c2)c1` [Compound 74d, 2-(4-acetyl-2-((7-(2-(aminomethyl)pyridin-4-yl)-2-fluorobenzofuran-5-yl)methoxy)phenyl)acetic acid]: the IC50 is < 1000 nM.

Regarding `NCc1cccc(-c2cc(COc3ccccc3)cc3ccoc23)c1` [Compound 83b, (3-(5-(phenoxymethyl)benzofuran-7-yl)phenyl)methanamine], the IC50 is > 10000 nM.

For `CC(=O)c1ccc(CC(=O)O)c(OCc2cc(-c3cccc(CN)c3)c3oc(F)cc3c2)c1` [Compound 64h, 2-(4-acetyl-2-((7-(3-(aminomethyl)phenyl)-2-fluorobenzofuran-5-yl)methoxy)phenyl)acetic acid], the IC50 is < 1000 nM.

For `COc1ccc(CC(=O)O)c(OCc2cc(-c3cccc(C(N)CF)c3)c3occc3c2)c1` (single isomer, unassigned; (+)) [Compound 14k, (+)-2-(2-((7-(3-(1-amino-2-fluoroethyl)phenyl)benzofuran-5-yl)methoxy)-4-methoxyphenyl)acetic acid], the IC50 was < 1000 nM.

Turning to `NCc1cccc(-c2cc(COc3cc(CN)ccc3CC(=O)O)cc3c(C(F)(F)F)coc23)c1` [Compound 31d, 2-(4-(aminomethyl)-2-((7-(3-(aminomethyl)phenyl)-3-(trifluoromethyl)benzofuran-5-yl)methoxy)phenyl)acetic acid], the half-maximal inhibitory concentration (IC50) is < 1000 nM.

In the case of `CC(N)c1ccc(CC(=O)O)c(OCc2cc(-c3cccc(CN)c3)c3occc3c2)c1` (single isomer, unassigned; (-)) [Compound 61a, (−)-2-(4-(1-aminoethyl)-2-((7-(3-(aminomethyl)phenyl)benzofuran-5-yl)methoxy)phenyl)acetic acid], the IC50 is < 1000 nM.

For the compound `NCc1cccc(-c2cc(COc3cc(C(F)(F)F)ccc3CC(=O)O)cc3cc(F)oc23)c1` [Compound 53d, 2-(2-((7-(3-(aminomethyl)phenyl)-2-fluorobenzofuran-5-yl)methoxy)-4-(trifluoromethyl)phenyl)acetic acid], the IC50 is < 1000 nM.

With `NCc1cccc(-c2cc(COc3ccc(F)cc3CC(=O)O)cc3cc(F)oc23)c1` [Compound 16f, 2-(2-((7-(3-(aminomethyl)phenyl)-2-fluorobenzofuran-5-yl)methoxy)-5-fluorophenyl)acetic acid], the IC50 was < 1000 nM.

In the case of `NCc1cccc(-c2cc(C(Oc3ccccc3CC(=O)O)C(=O)O)cc3ccoc23)c1` (stereo not drawn) [Compound 35e, 2-(7-(3-(aminomethyl)phenyl)benzofuran-5-yl)-2-(2-(carboxymethyl)phenoxy)acetic acid], the IC50 is < 1000 nM.

On to `NCc1cc(-c2cc(COc3ccccc3CC(=O)O)cc3c(F)coc23)ccn1` [Compound 47c, 2-(2-((7-(2-(aminomethyl)pyridin-4-yl)-3-fluorobenzofuran-5-yl)methoxy)phenyl)acetic acid], for which the half-inhibitory concentration (IC50) is < 1000 nM.
